# PMC9867347, “An Acid-Sensitive Bone Targeting Delivery System Carrying Acacetin Prevents Osteoporosis in Ovariectomized Mice” (Pharmaceuticals, 2022)
# Ends that are not written are not given here.
# Key:
# BMMs = assay: Cytotoxicity assay (CCK-8); format: cell-based, C57BL/6J mice; conditions: 48 h and 96 h, CCK-8, n = 6
# Protocol: In brief, the hind limbs of C57BL/6J mice were used to isolate bone marrow cells and cultured in α-MEM containing 10% FBS and 1% penicillin-streptomycin for one day to generate BMMs as described previously; 25 ng/mL […] Systems, Minneapolis, MN, USA) and 50 ng/mL […] Systems, Minneapolis, MN, USA) were used for the preparation of osteoclasts. […] The medium was changed every 2 days. After 48 h and 96 h of culture, CCK8 reagent (10 μL/well, Dojindo, Kumamoto, Japan) was added to each well. Then, the cells were incubated in darkness at 37 °C for 2 h. The absorbance was recorded using a microplate reader (Thermo Fisher Scientific, Waltham, MA, USA) at 450 nm.
# PI3K/AKT/mTOR pathway = assay: Western blotting, PI3K/AKT/mTOR phosphorylation; format: cell-based, C57BL/6J mice; conditions: BMMs, RANKL and M-CSF, acacetin 25 μM, 6 h, n = 3
# Protocol: (§1) RIPA lysate (50 × protease inhibitor, 50 × phosphatase inhibitor) was used to extract total protein from the cells. Then, 20 μg protein or protein marker per lane (PageRuler ™ (ThermoFisher Scientific, Waltham, MA, USA) Prestained Protein Ladder 10kD-180KD or HiMark™ (ThermoFisher Scientific, Waltham, MA, USA) Pre-stained Protein Standard 31 kd-460 kd) was loaded onto an SDS gel (30% Acrylamide, 1.5 M Tris-HCl, 10% SDS, 10% Ammonium persulfate and TEMED) and subjected to electrophoresis and transferred to a polyvinylidene fluoride membrane. The membrane was blocked with 5% BSA for 4 h and incubated with the specific primary antibody overnight at 4 °C. Then, the membrane was incubated with a secondary antibody (IRDye) for 1 h at room temperature. Bio-Rad ChemiDoc MP imaging system (Bio-Rad Laboratories, Hercules, CA, USA) was used to visualize protein bands and ImageJ software was used to calculate relative protein expression based on grayscale blots.
# (§2) Antibodies including p-AKT (Ser473; #4060), AKT (#4691), LC3A/B Antibody (#4108), p-mTOR (Ser2448; #5536), mTOR (#2983), c-Fos (#2250), NFATc1 (#8032), p-PI3K (#4228), PI3K (#4249), and GAPDH (#5174) were purchased from Cell Signalling Technology (Denver, MA, USA).
# [1] = Hydroxyapatite (HA) binding assay; conditions: 800 μM, 4 mM sodium phosphate, 150 mM sodium chloride, pH 7.4, 15 mg HA, 37 °C, 0-80 min, HPLC
# Protocol: Acacetin-EMCH-D6 and acacetin were dissolved, respectively, in a buffer containing 4 mM sodium phosphate and 150 mM sodium chloride (pH = 7.4), to a final concentration of 800 μM; 15 mg of HA was added and incubated in a 37 °C water bath; 20 μL aliquots were taken after 0, 10, 20, 40, and 80 min and quantified by HPLC.
# OVX mice = assay: OVX mouse model of osteoporosis; format: in vivo, C57BL/6J mice; conditions: for anti-osteoporotic effects (OVX-induced bone loss; BMD and BV/TV, micro-CT of tibia): i.p. 5 mg/kg/3 day for 5 weeks
# [2] = plasma, after intravenous administration; cited from earlier work
# Excerpt: (§3) Osteoporosis following the estrogen withdrawal of menopause is a serious global clinical problem with a significant increase in the risk of fractures. Supplementation of estrogen is not recommended for the long-term treatment of postmenopausal bone loss because of the increased risk of breast cancers and cardiovascular events. Pure compounds isolated from natural products are emerging as potential therapeutics for postmenopausal osteoporosis. Acacetin is a di-hydroxy and mono-methoxy flavone widely distributed in various plants including the Acacia tree, black locust, and ...
# [3] = test system: ovariectomized (OVX) mice; conditions: 20 mg/kg/day for 8 weeks; ref 11 (Lin et al.); cited from earlier work
# Excerpt: as §3
# [4] = test system: mRNA expression of TRAP, NFATc1, and CTSK; assay: RT-PCR of osteoclast genes; format: cell-based, C57BL/6J mice; conditions: BMMs, RANKL and M-CSF, 12.5, 25 μM, 3 days, n = 3
# Protocol: The total RNA was extracted from cells or tissues using TRIzol reagent (Thermo Fisher Scientific, Waltham, MA, USA) according to the manufacturer’s instructions. PrimeScript^TM RT Master Mix (RR036Q, Takara, San Jose, CA, USA) was used to reverse transcribe 1 μg of total RNA extracted into complementary DNA (cDNA) for subsequent RT-PCR reactions using qTOWER real-time PCR thermal cycler (Analytik Jena, Jena, Germany).
# [5] = test system: BMMs stimulated with RANKL and M-CSF; assay: TRAP staining, osteoclast differentiation; format: cell-based, C57BL/6J mice; conditions: 7 days
# Protocol: In brief, the hind limbs of C57BL/6J mice were used to isolate bone marrow cells and cultured in α-MEM containing 10% FBS and 1% penicillin-streptomycin for one day to generate BMMs as described previously; 25 ng/mL […] Systems, Minneapolis, MN, USA) and 50 ng/mL […] Systems, Minneapolis, MN, USA) were used for the preparation of osteoclasts. […] TRAP-positive multinucleated osteoclasts (≥3 nuclei) were counted using a TRAP kit (Zhejiang Zhuoteng Biological, Shaoxing, China) according to the manufacturer's instructions. BMMs were induced by RANKL (50 ng/mL) and M-CSF (25 ng/mL) in the presence of acacetin (25 μM) and rapamycin (50 nmol/L) for 7 days. TRAP-positive multinucleated osteoclasts (≥3 nuclei) were counted.
# [6] = test system: BMMs stimulated with RANKL and M-CSF; assay: Bone resorption assay (Osteo Assay Surface plate); format: cell-based, C57BL/6J mice
# Protocol: In brief, the hind limbs of C57BL/6J mice were used to isolate bone marrow cells and cultured in α-MEM containing 10% FBS and 1% penicillin-streptomycin for one day to generate BMMs as described previously; 25 ng/mL M-CSF (416-ML-010/CF, R&D Systems, Minneapolis, MN, USA) and 50 ng/mL RANKL (462-TR-010/CF, R&D Systems, Minneapolis, MN, USA) were used for the preparation of osteoclasts.
# Assays for bone resorption were performed using Corning Osteo Assay Surface plate (Sigma-Aldrich, Hongkong, China). We analyzed bone resorption pits with a light microscope and quantified pits area using Image J software (NIH, Bethesda, MD, USA).
# LC3II = assay: Western blotting, LC3II (autophagy); format: cell-based, C57BL/6J mice; conditions: BMMs, RANKL and M-CSF, 6 h
# Protocol: as §1, §2
# c-Fos and NFATc1 = assay: Western blotting, c-Fos and NFATc1; format: cell-based, C57BL/6J mice; conditions: BMMs, RANKL and M-CSF, 3 days
# Protocol: as §1, §2
# [7] = statement of the design section, reference not given; cited from earlier work
# Excerpt: The next step is the identification of bone-targeting peptides. Bone tissue, as a special connective tissue, consists of a variety of cells and intercellular bone matrix, with high inorganic salt content which is mainly composed of HA. In recent years, more and more peptide sequences with excellent bone-targeting ability have been discovered. Compared with bone-targeting small molecules, these peptides have more specific mechanisms, high affinity and low side effects. Considering that acacetin has an excellent inhibitory effect on osteoclasts, we selected […] ...
# [8] = i.p. 17.5 μmol/kg every 3 days for 5 weeks
# [9] = i.p. 17.5 μmol/kg every 3 days for 5 weeks, n = 6
# [10] = Acacetin-EMCH-D6 17.5 μmol/kg and rapamycin 1 mg/kg i.p. every 3 days, 5 weeks, at least in part
# [11] = Acacetin-EMCH-D6 17.5 μmol/kg and rapamycin 1 mg/kg i.p. every 3 days, 5 weeks, proximal tibia
# [12] = acacetin 25 μM and rapamycin 50 nmol/L
compound,measurement,setting,value
COc1ccc(-c2cc(=O)c3c(O)cc(O)cc3o2)cc1 [acacetin],cell viability,BMMs; dose more than 50 μM,reduced cell viability
same,cell viability,"BMMs; dose of 6.25, 12.5, and 25 μM",did not affect cell viability
same,RANKL+M-CSF-induced reduction of AKT phosphorylation,PI3K/AKT/mTOR pathway,reversed
same,RANKL+M-CSF-induced reduction of PI3K phosphorylation,PI3K/AKT/mTOR pathway,reversed
same,RANKL+M-CSF-induced reduction of mTOR phosphorylation,PI3K/AKT/mTOR pathway,reversed
same,binding to hydroxyapatite (HA),[1],very weak binding
same,"BMD, proximal tibia and L5 vertebra (micro-CT), OVX-induced change",OVX mice; [8],no significant effect
same,"BV/TV, proximal tibia and L5 vertebra (micro-CT), OVX-induced change",OVX mice; [8],no significant effect
same,"Tb.N, proximal tibia and L5 vertebra (micro-CT), OVX-induced change",OVX mice; [8],no significant effect
same,"Tb.Sp, proximal tibia and L5 vertebra (micro-CT), OVX-induced change",OVX mice; [8],no significant effect
same,"number of TRAP-positive cells, proximal tibia (OVX-induced increase)",OVX mice; [8],did not affect the histological changes
same,plasma CTX-1 levels,OVX mice; [9],no significant effect
same,"trabecular density and thickness, proximal tibia (H&E staining)",OVX mice; [9],did not affect the histological changes
same,"anti-osteoporotic effects (OVX-induced bone loss; BMD and BV/TV, micro-CT of tibia)","OVX mice; n = 6, Figure S1, 5 mg/kg",did not observe its anti-osteoporotic effects
same,"anti-osteoporotic effects (OVX-induced bone loss; BMD and BV/TV, micro-CT of tibia)","OVX mice; n = 6, Figure S1, listed as Acacetin, 5 mg/kg",no effect on OVX-induced bone loss
same,terminal half-life,[2],1.48 h
same,bone loss in ovariectomized (OVX) mice,[3],protected against bone loss
same,mRNA expression of CTSK,[4],suppressed
same,mRNA expression of NFATc1,[4],suppressed
same,mRNA expression of TRAP,[4],suppressed
same,number of TRAP-positive osteoclasts (nuclei ≥ 3),"[5]; RANKL 50 ng/mL and M-CSF 25 ng/mL, 12.5, 25 μM, n = 3",significantly diminished
same,area of bone resorption pits,"[6]; RANKL 50 ng/mL and M-CSF 25 ng/mL, 12.5, 25 μM added for 3 days after immature osteoclasts formed, n = 3",significantly diminished
same,RANKL+M-CSF-induced increase of LC3II protein levels,"LC3II; acacetin 25 μM, n = 3",reversed
same,protein expression of NFATc1,c-Fos and NFATc1; acacetin 25 μM,downregulated
same,protein expression of c-Fos,c-Fos and NFATc1; acacetin 25 μM,downregulated
"DDDDDD [D6, medium-length polyaspartic acid, bone targeting peptide]",HA affinity,[7],comparable to tetracycline and calcein
CO[C@H]1C[C@@H]2CC[C@@H](C)[C@@](O)(O2)C(=O)C(=O)N2CCCC[C@H]2C(=O)O[C@H]([C@H](C)C[C@@H]2CC[C@@H](O)[C@H](OC)C2)CC(=O)[C@H](C)/C=C(\C)[C@@H](O)[C@@H](OC)C(=O)[C@H](C)C[C@H](C)/C=C/C=C/C=C/1C [rapamycin],effect of rapamycin co-treatment on BMD augmentation by Acacetin-EMCH-D6,OVX mice; [10],reversed
same,effect of rapamycin co-treatment on BV/TV augmentation by Acacetin-EMCH-D6,OVX mice; [10],reversed
same,effect of rapamycin co-treatment on Tb.N augmentation by Acacetin-EMCH-D6,OVX mice; [10],reversed
same,effect of rapamycin co-treatment on Tb.Sp reduction by Acacetin-EMCH-D6,OVX mice; [10],reversed
same,effect of rapamycin co-treatment on reduction of LC3 dots by Acacetin-EMCH-D6,OVX mice; [11],partly reversed
same,effect of rapamycin co-treatment on reduction of TRAP-positive osteoclasts by Acacetin-EMCH-D6,OVX mice; [11],partly reversed
same,effect of rapamycin co-treatment on inhibition of osteoclast differentiation by acacetin (TRAP assay),"[5]; RANKL and M-CSF, acacetin 25 μM and rapamycin 50 nmol/L",partly reversed
same,effect of rapamycin co-treatment on inhibition of bone resorption by acacetin,"[6]; RANKL and M-CSF, acacetin 25 μM and rapamycin 50 nmol/L, 3 days",partly reversed
same,effect of rapamycin co-treatment on inhibition of LC3II protein levels by acacetin,LC3II; [12],abolished
same,effect of rapamycin co-treatment on downregulation of NFATc1 protein by acacetin,c-Fos and NFATc1; [12],partially reversed
same,effect of rapamycin co-treatment on downregulation of c-Fos protein by acacetin,c-Fos and NFATc1; [12],partially reversed
